Patent US4198506A, “2-Carboxyalkyl-2,3-dihydro-6-mercapto-s-triazolo[4,3-b]-pyridazin-3-ones” (Bristol-Myers Company, priority 1979, dated 1980)
≈ marks a conversion by molar mass, not a printed value. Read-outs that look alike come from different tables or passages of the source.

What was measured:
[1] = system: Enterobacter (Cephalosporinase +); assay: In vitro activity (geometric mean MIC, serial dilution); type: cell-based; conditions: 7 strains, Mueller-Hinton agar, inoculum 10^4 dilution, MIC cutoff 200 mcg./ml.
[2] = system: Proteus (indole-); assay: as above; type: cell-based; conditions: read-out: Geometric Mean MIC
[3] = system: E. coli (sensitive); assay: as above; type: cell-based; conditions: Escherichia coli, read-out: Geometric Mean MIC
[4] = system: Proteus (indole +, cephalosporinase +); assay: as above; type: cell-based; conditions: 5 strains; Mueller-Hinton agar, inoculum 10^4 dilution; MIC cutoff 200 mcg./ml.; read-out: Geometric Mean MIC
[5] = system: Proteus (indole +); assay: as above; type: cell-based; conditions: read-out: Geometric Mean MIC
[6] = system: S. marcescens; assay: as above; type: cell-based; conditions: Serratia marcescens; 16 strains; Mueller-Hinton agar, inoculum 10^4 dilution; MIC cutoff 200 mcg./ml.; read-out: Geometric Mean MIC
[7] = system: S. aureus penicillinase+); assay: as above; type: cell-based; conditions: Staphylococcus aureus; 13 strains; Mueller-Hinton agar, inoculum 10^4 dilution; MIC cutoff 200 mcg./ml.; read-out: Geometric Mean MIC
[8] = system: S. aureus (Methicillin-R); assay: as above; type: cell-based; conditions: Staphylococcus aureus; 15 strains; Mueller-Hinton agar, inoculum 10^4 dilution; MIC cutoff 200 mcg./ml.
[9] = system: Enterobacter (sensitive); assay: as above; type: cell-based; conditions: 3 strains, Mueller-Hinton agar, inoculum 10^4 dilution, MIC cutoff 200 mcg./ml., read-out: Geometric Mean MIC
[10] = system: Providencia sp.; assay: as above; type: cell-based; conditions: 5 strains, Mueller-Hinton agar, inoculum 10^4 dilution, MIC cutoff 200 mcg./ml., read-out: Geometric Mean MIC
[11] = system: Miscellaneous (Salmonella, Shigella, Citrobacter); assay: microbe, parasite or virus in culture; conditions: read-out: Geometric Mean MIC
[12] = system: S. pyogenes; assay: In vitro activity (geometric mean MIC, serial dilution); type: cell-based; conditions: Streptococcus pyogenes; 10 strains; Mueller-Hinton agar, inoculum 10^4 dilution; MIC cutoff 200 mcg./ml.
[13] = system: D. pneumoniae; assay: as above; type: cell-based; conditions: Streptococcus pneumoniae; 9 strains; Mueller-Hinton agar, inoculum 10^4 dilution; MIC cutoff 200 mcg./ml.
[14] = system: S. aureus Smith; assay: In vivo activity (Mice, sc); conditions: Staphylococcus aureus, several determinations listed, read-out: PD50
From the text: (§1) |In vivo Activity of BB-[…] and Related Compounds (Mice, sc) | (PD50 (mgm./kg.)

[15] = system: E. coli Juhl; assay: In vivo activity (Mice, sc); conditions: Escherichia coli, several determinations listed, read-out: PD50
From the text: as §1

[16] = system: S. aureus (sensitive); assay: In vitro activity (geometric mean MIC, serial dilution); type: cell-based; conditions: Staphylococcus aureus, read-out: Geometric Mean MIC
[17] = system: Klebsiella sp.; assay: as above; type: cell-based; conditions: 12 strains, Mueller-Hinton agar, inoculum 10^4 dilution, MIC cutoff 200 mcg./ml., read-out: Geometric Mean MIC
[18] = system: E. coli (Penicillinase +); assay: as above; type: cell-based; conditions: Escherichia coli; 7 strains; Mueller-Hinton agar, inoculum 10^4 dilution; MIC cutoff 200 mcg./ml.; read-out: Geometric Mean MIC
[19] = system: Serr. marcescens; assay: In vitro antibacterial activity (Steers' agar dilution MIC); type: cell-based; conditions: Serratia marcescens; table 2 (BB-S493); Serr. marcescens A20019; read-out: MIC
[20] = system: B. anthracis; assay: microbe, parasite or virus in culture; type: cell-based; conditions: Bacillus anthracis, table 2 (BB-S493); B. anthracis A9504
[21] = system: St. faecalis; assay: In vitro antibacterial activity (Steers' agar dilution MIC); type: cell-based; conditions: Enterococcus faecalis, table 2 (BB-S493); St. faecalis A9536; read-out: MIC
[22] = system: Sal. enteritidis; assay: as above; type: cell-based; conditions: Salmonella enterica, table 2 (BB-S493), Sal. enteritidis A9531
[23] = system: Pr. rettgeri; assay: as above; type: cell-based; conditions: Providencia rettgeri, table 2 (BB-S493); Pr. rettgeri A15167
[24] = system: Pr. vulgaris; assay: as above; type: cell-based; conditions: Proteus vulgaris, table 2 (BB-S493), read-out: MIC
[25] = system: Sal. typhosa; assay: as above; type: cell-based; conditions: table 2 (BB-S493); Sal. typhosa A9498
From the text: (§2) In vitro Antibacterial Activity of BB-S493 Compared with
(§3) BB-S479 and Cefamandole (Determined by Steers' Agar Dilu-
(§4) tion Method on Mueller-Hinton Agar Plate)
(§5) In vitro antibacterial activity of BB-S 525 compared with
(§6) BB-S 479 and cefamandole (determined by Steers' agar dilution
(§7) method on Mueller-Hinton agar plate)

[26] = system: Kl. pneumoniae; assay: as above; type: cell-based; conditions: Klebsiella pneumoniae, table 2 (BB-S493)
From the text: as §2, §3, §4, §5, §6, §7

[27] = system: E. coli; assay: as above; type: cell-based; conditions: Escherichia coli, read-out: MIC
From the text: as §2, §3, §4, §5, §6, §7

[28] = system: Shig. sonnei; assay: as above; type: cell-based; conditions: Shigella sonnei, table 2 (BB-S493); Shig. sonnei A9516
From the text: as §2, §3, §4, §5, §6, §7

[29] = system: S. aureus; assay: as above; type: cell-based; conditions: Staphylococcus aureus, table 2 (BB-S493)
From the text: as §2, §3, §4, §5, §6, §7

[30] = system: Shig. flexneri; assay: as above; type: cell-based; conditions: Shigella flexneri; table 2 (BB-S493); Shig. flexneri A9684; read-out: MIC
From the text: as §2, §3, §4, §5, §6, §7

[31] = system: Shig. dysenteriae; assay: as above; type: cell-based; conditions: Shigella dysenteriae, table 2 (BB-S493); Shig dysenteriae
[32] = system: Pr. mirabilis; assay: as above; type: cell-based; conditions: Proteus mirabilis, table 2 (BB-S493), read-out: MIC
[33] = system: Pr. morganii; assay: as above; type: cell-based; conditions: Morganella morganii, table 2 (BB-S493), read-out: MIC
[34] = system: Ps. aeruginosa; assay: as above; type: cell-based; conditions: table 2 (BB-S493)
[35] = system: Enterob. cloacae; assay: as above; type: cell-based; conditions: table 2 (BB-S493); Enterob. cloacae A9656; read-out: MIC

Question: With `NCc1ccsc1CC(=O)N[C@@H]1C(=O)N2C(C(=O)O)=C(CSc3ccc4nn(CC(=O)O)c(=O)n4n3)CS[C@H]12` [BB-S483, 7-(3-Aminomethyl-2-thienylacetamido)-3-(2-carboxymethyl-2,3-dihydro-s-triazolo[4,3-b]pyridazin-3-on-6-ylthiomethyl)-3-cephem-4-carboxylic Acid] as the compound, how does the MIC [1] read?
Answer: Its MIC is 5.2 µg/mL (≈ 8.79 µM).

Question: What about the MIC [2] of the same compound?
Answer: Its MIC is 0.7 µg/mL (≈ 1.18 µM).

Question: And the MIC [3]?
Answer: Its MIC is 0.3 µg/mL (≈ 0.507 µM).

Question: And the MIC [4]?
Answer: Its MIC is 17 µg/mL (≈ 28.7 µM).

Question: What about the MIC [5] of the same compound?
Answer: Its MIC is 0.4 µg/mL (≈ 0.676 µM).

Question: And the MIC [6]?
Answer: The MIC was 81 µg/mL (≈ 137 µM).

Question: And the MIC [7]?
Answer: Its MIC is 1.1 µg/mL (≈ 1.86 µM).

Question: What about the MIC [8] of the same compound?
Answer: Its MIC is 48 µg/mL (≈ 81.1 µM).

Question: And the MIC [9]?
Answer: Its MIC is 1.3 µg/mL (≈ 2.2 µM).

Question: And the MIC [10]?
Answer: The MIC was 2.1 µg/mL (≈ 3.55 µM).

Question: And the MIC [11]?
Answer: Its MIC is 0.9 µg/mL (≈ 1.52 µM).

Question: And the MIC [12]?
Answer: Its MIC is 0.08 µg/mL (≈ 0.135 µM).

Question: What about the MIC [13] of the same compound?
Answer: The MIC was 0.04 µg/mL (≈ 0.0676 µM).

Question: What about the ED50 [14] of the same compound?
Answer: Its ED50 is 0.34 mg/kg.

Question: What about the ED50 [15] of the same compound?
Answer: The ED50 was 0.15 mg/kg.

Question: What about the MIC [16] of the same compound?
Answer: Its MIC is 0.3 µg/mL (≈ 0.507 µM).

Question: And the MIC [17]?
Answer: Its MIC is 1.1 µg/mL (≈ 1.86 µM).

Question: And the MIC [18]?
Answer: The MIC was 21 µg/mL (≈ 35.5 µM).

Question: Which MIC [19] does the source give for `NCC1=C(CC(=O)N[C@@H]2C(=O)N3C(C(=O)O)=C(CSc4ccc5nn(CC(=O)O)c(=O)n5n4)CS[C@H]23)CC=CC1` [BB-S493, 7-[(2-Aminomethyl-1,4-cyclohexadienyl)acetamido]3-(2-N-carboxymethyl-s-triazolo[4,5-b]pyridazin-3-on-6-ylthiomethyl)-3-cephem-4-carboxylic Acid] here?
Answer: The MIC was 100 µg/mL (≈ 170 µM).

Question: And the MIC [20]?
Answer: Its MIC is 0.0125 µg/mL (≈ 0.0213 µM).

Question: And the MIC [21]?
Answer: The MIC was 100 µg/mL (≈ 170 µM).

Question: What about the MIC [22] of the same compound?
Answer: Its MIC is 0.1 µg/mL (≈ 0.17 µM).

Question: What about the MIC [23] of the same compound?
Answer: Its MIC is 0.1 µg/mL (≈ 0.17 µM).

Question: And the MIC ([24]; Pr. vulgaris A9436)?
Answer: The MIC was 0.4 µg/mL (≈ 0.681 µM).

Question: What about the MIC ([24]; Pr. vulgaris A9699) of the same compound?
Answer: The MIC was 6.3 µg/mL (≈ 10.7 µM).

Question: What about the MIC [25] of the same compound?
Answer: Its MIC is 0.1 µg/mL (≈ 0.17 µM).

Question: And the MIC ([26]; Kl. pneumoniae A9678)?
Answer: The MIC was 0.4 µg/mL (≈ 0.681 µM).

Question: And the MIC ([26]; Kl. pneumoniae A9867)?
Answer: The MIC was 0.2 µg/mL (≈ 0.34 µM).

Question: What about the MIC ([26]; Kl. pneumoniae A9977) of the same compound?
Answer: Its MIC is 0.2 µg/mL (≈ 0.34 µM).

Question: And the MIC ([26]; Kl. pneumoniae A15130)?
Answer: The MIC was 0.2 µg/mL (≈ 0.34 µM).

Question: What about the MIC ([27]; ATCC8739, table 2 (BB-S493), E. coli ATCC 8739) of the same compound?
Answer: Its MIC is 0.2 µg/mL (≈ 0.34 µM).

Question: And the MIC ([27]; table 2 (BB-S493), E. coli A9660)?
Answer: Its MIC is 0.1 µg/mL (≈ 0.17 µM).

Question: What about the MIC ([27]; table 2 (BB-S493), E. coli A15147) of the same compound?
Answer: The MIC was 6.3 µg/mL (≈ 10.7 µM).

Question: What about the MIC ([27]; table 2 (BB-S493), E. coli A15810) of the same compound?
Answer: The MIC was 0.2 µg/mL (≈ 0.34 µM).

Question: What about the MIC ([27]; table 2 (BB-S493), E. coli BX-1373) of the same compound?
Answer: Its MIC is 0.4 µg/mL (≈ 0.681 µM).

Question: What about the MIC ([27]; table 2 (BB-S493), E. coli Juhl A15119) of the same compound?
Answer: The MIC was 0.2 µg/mL (≈ 0.34 µM).

Question: What about the MIC ([27]; table 2 (BB-S493), E. coli NIHJ) of the same compound?
Answer: Its MIC is 0.1 µg/mL (≈ 0.17 µM).

Question: What about the MIC [28] of the same compound?
Answer: The MIC was 0.05 µg/mL (≈ 0.0851 µM).

Question: And the MIC ([29]; S. aureus A9497)?
Answer: Its MIC is 0.2 µg/mL (≈ 0.34 µM).

Question: And the MIC ([29]; S. aureus BX-1633 A9606)?
Answer: Its MIC is 0.4 µg/mL (≈ 0.681 µM).

Question: And the MIC ([29]; S. aureus Smith A9537)?
Answer: The MIC was 0.4 µg/mL (≈ 0.681 µM).

Question: And the MIC [30]?
Answer: Its MIC is 25 µg/mL (≈ 42.5 µM).

Question: And the MIC [31]?
Answer: Its MIC is 0.05 µg/mL (≈ 0.0851 µM).

Question: And the MIC ([32]; Pr. mirabilis A9554)?
Answer: The MIC was 0.2 µg/mL (≈ 0.34 µM).

Question: What about the MIC ([32]; Pr. mirabilis A9900) of the same compound?
Answer: The MIC was 0.2 µg/mL (≈ 0.34 µM).

Question: What about the MIC ([33]; Pr. morganii A9553) of the same compound?
Answer: The MIC was > 100 µg/mL.

Question: What about the MIC ([33]; Pr. morganii A20031) of the same compound?
Answer: Its MIC is 0.4 µg/mL (≈ 0.681 µM).

Question: What about the MIC ([34]; Pseudomonas aeruginosa, Ps. aeruginosa A9843, read-out: MIC) of the same compound?
Answer: Its MIC is > 100 µg/mL.

Question: And the MIC ([34]; Ps. aerugionsa A9930)?
Answer: The MIC was > 100 µg/mL.

Question: And the ED50 [14]?
Answer: The ED50 was 0.29 mg/kg.

Question: What about the ED50 [15] of the same compound?
Answer: Its ED50 is 0.27 mg/kg.

Question: And the MIC [35]?
Answer: The MIC was 6.3 µg/mL (≈ 10.7 µM).
